Here are results for 23 molecules from US4352792A, “3-Alkoxyflavone antiviral agents” (priority 1979, dated 1982).

In series [1] the test system is influenzavirus A2/Adachi. The series can be described thus: Anti-influenzavirus activity in mice. Conditions: up to 21 days; for Survivals: survivors/total.
Series [2] concerns Coxsackie virus B1.
The subject of series [3] is Coxsackie virus B1. The series can be described thus: Inhibition of viral cytopathogenic effect in HeLa cells (Coxsackie virus B1). The format is cell-based. Conditions: 24 h, read-out: IC50 Coxsackie virus B1.
In series [4] the test system is Coxsackie virus B1. The series can be described thus: Anti-Coxsackie virus activity, lethal infection in mice.
Series [5] relates to rhinovirus HGP. Put plainly: Inhibition of viral cytopathogenic effect in HeLa cells (rhinovirus HGP). The note with it: Enterovirus, 48 h, read-out: IC50 rhinovirus HGP. The series is classed as cell-based.
A short description of series [6]: acute toxicity in mice. The note with it: mouse, in vivo, day 21.
The mark [7] stands for this setting: Mus musculus, ip, 504 h, read-out: Survival.
Setting [8] is: Mus musculus, po, 504 h, read-out: Survival.
Where [9] appears, read: 50% inhibition of viral c.p.e., HeLa cells, 2 days at 33° C.
The mark [10] stands for this setting: ip, single dose i.p., dissolved in dimethyl sulfoxide, read-out: LD50 i.p.
[11] abbreviates: po, single dose p.o., suspended in 0.5% carboxymethylcellulose, read-out: LD50 p.o.
Setting [12] is: 50% inhibition of viral c.p.e., HeLa cells, 1 day at 37° C.
Setting [13] is: Mus musculus, iv, 504 h, read-out: Survival.

≈ marks a conversion by molar mass, not a printed value. Read-outs that look alike come from different tables or passages of the source.

With `COc1cc(OC(C)=O)c2c(=O)c(OC)c(-c3ccc(OC(C)=O)c(OC)c3)oc2c1`, the Survivals in series [1] (20 mg/kg × 9, i.p.) is recorded as 2/7; in series [1] (40 mg/kg × 9, i.p.) it was 3/8. Further, the “Survivals (%)” value in series [1] (20 mg/kg × 9, i.p.) worked out at 29%; in series [1] (40 mg/kg × 9, i.p.) it was 38%. The Survivors/total is reported as 2/7 in series [2] (10 mg/kg × 9 orally, infection 2.5x LD50, day 21); 1/7 in series [2] (10 mg/kg × 9 orally, infection 10x LD50, day 21); 0/7 in series [2] (10 mg/kg × 9 orally, infection 40x LD50, day 21); 0/7 in series [2] (10 mg/kg × 9 orally, infection 160x LD50, day 21); 3/7 in series [2] (20 mg/kg × 9 orally, infection 2.5x LD50, day 21); 2/7 in series [2] (20 mg/kg × 9 orally, infection 10x LD50, day 21). The Survivors/total in series [2] (20 mg/kg × 9 orally, infection 40x LD50, day 21) is given as 1/7; in series [2] (20 mg/kg × 9 orally, infection 160x LD50, day 21), 1/7; in series [2] (40 mg/kg × 9 orally, infection 2.5x LD50, day 21), 4/7; in series [2] (40 mg/kg × 9 orally, infection 10x LD50, day 21) it was 3/7; in series [2] (40 mg/kg × 9 orally, infection 40x LD50, day 21), 2/7; in series [2] (40 mg/kg × 9 orally, infection 160x LD50, day 21), 2/7. For the same molecule, the IC50 in series [3] (HeLa) and in series [5] (setting [9]) was 0.1 to 0.2 µg/mL (≈ 0.233 to 0.467 µM) in each case. This molecule registered a Survival in series [4] (40 mg/kg × 9, p.o., up to 21 days) of 50%. Besides, in series [4] (setting [7]), the responders at 10 mg/kg is 54%. For the same molecule, the responders at 20 mg/kg came out at 67% in series [4] (setting [7]) and 20% in series [4] (setting [8]). Also, the responders at 40 mg/kg in series [4] (setting [8]) turned out to be 50%. The responders at 80 mg/kg in series [4] (setting [8]) stood at 60%. Besides, the LD50 at 504 h is > 1000 mg/kg in series [6] (setting [10]) and > 5000 mg/kg in series [6] (setting [11]).
Turning to `COc1cc(O)c2c(=O)c(OC)c(-c3ccc(OC)c(O)c3)oc2c1` [3',5-dihydroxy-3,4',7-trimethoxyflavone], the figures for the IC50 in series [3] (setting [12]) and in series [5] (setting [9]) were 3 to 10 µg/mL (≈ 8.71 to 29 µM) and 3 µg/mL (≈ 8.71 µM), respectively.
Regarding `COc1cc(OC(=O)c2cccnc2)c2c(=O)c(OC)c(-c3ccc(OC(=O)c4cccnc4)c(OC)c3)oc2c1` [3,3',7-trimethoxy-4',5-bis-(nicotinoyloxy)-flavone], the IC50 in series [3] (setting [12]) was 0.3 to 1 µg/mL (≈ 0.541 to 1.8 µM). In series [4] (setting [8]), the responders at 10 mg/kg was determined as 40% and the responders at 20 mg/kg was determined as 30%. In series [5] (setting [9]), the IC50 fell in the range of 0.3 to 1 µg/mL (≈ 0.541 to 1.8 µM).
Consider `CCC(=O)Oc1ccc(-c2oc3cc(OC)cc(OC(=O)CC)c3c(=O)c2OC)cc1OC` [3,3',7-trimethoxy-4',5-bis-(propionyloxy)-flavone], for which the IC50 lay within 0.1 to 1.2 µg/mL (≈ 0.219 to 2.63 µM) in series [3] (setting [12]) and 0.1 to 0.2 µg/mL (≈ 0.219 to 0.438 µM) in series [5] (setting [9]).
In the same order, the values of `CCOc1c(-c2ccc(O)c(OC)c2)oc2cc(OC)cc(O)c2c1=O` [3-ethoxy-4',5-dihydroxy-3',7-dimethoxyflavone] are 0.05 to 0.1 µg/mL (≈ 0.14 to 0.279 µM) and 0.05 to 0.1 µg/mL (≈ 0.14 to 0.279 µM).
Turning to `CCOC(=O)Oc1ccc(-c2oc3cc(OC)cc(OC(=O)OCC)c3c(=O)c2OC)cc1OC` [4',5-bis-(ethoxycarbonyloxy)-3,3',7-trimethoxyflavone], the 50% inhibitory concentration (IC50) in series [3] (setting [12]) and in series [5] (setting [9]) was 0.3 to 1 µg/mL (≈ 0.614 to 2.05 µM) in each case. For the same molecule, in series [4] (setting [8]), the responders at 10 mg/kg is 30%. Further, in series [4] (setting [8]), the responders at 20 mg/kg amounted to 30%.
For the molecule `COc1cc(O)c2c(=O)c(OC)c(-c3ccc(O)cc3OC)oc2c1` [4',5-dihydroxy-2,',3,7-trimethoxyflavone, 4',5-dihydroxy-2',3,7-trimethoxyflavone], the IC50 in series [3] (setting [12]) is 1 to 3 µg/mL (≈ 2.9 to 8.71 µM); in series [5] (setting [9]) it was 0.3 µg/mL (≈ 0.871 µM).
For the molecule `COc1cc(O)c2c(=O)c(OC(C)C)c(-c3ccc(O)c(OC)c3)oc2c1` [4',5-dihydroxy-3-isopropoxy-3',7-dimethoxyflavone], the IC50 in series [3] (setting [12]) and in series [5] (setting [9]) was 0.05 to 0.1 µg/mL (≈ 0.134 to 0.269 µM) each time.
`COc1cc(O)c2c(=O)c(OC)c(-c3ccc(OC(=O)C(O)C(O)C(=O)O)c(OC)c3)oc2c1` (centres unmarked) [4'-(3-carboxy-2,3-dihydroxypropionyloxy)-5-hydroxy-3,3',7-trimethoxyflavone]: the IC50 in series [3] (setting [12]) and in series [5] (setting [9]) was 0.1 to 0.2 µg/mL (≈ 0.21 to 0.42 µM) in each case.
`COc1cc(O)c2c(=O)c(OC)c(-c3ccc(OC(=O)[C@H](C)N)c(OC)c3)oc2c1` [4'-(L-alanyloxy)-5-hydroxy-3,3',7-trimethoxyflavone]: the half-inhibitory concentration (IC50) was 0.25 to 0.5 µg/mL (≈ 0.602 to 1.2 µM) in series [3] (HeLa) and 0.5 µg/mL (≈ 1.2 µM) in series [5] (setting [9]). Moreover, in series [4] (setting [13]), the responders at 10 mg/kg is 42%. Further, the LD50 at 504 h was > 1000 mg/kg in series [6] (setting [10]) and > 5000 mg/kg in series [6] (setting [11]).
For `COc1cc(O)c2c(=O)c(OC)c(-c3ccc(OC(=O)[C@@H](N)CCC(N)=O)c(OC)c3)oc2c1` [4'-(L-glutaminyloxy)-5-hydroxy-3,3',7-trimethoxyflavone], the IC50 in series [3] (HeLa) and in series [5] (setting [9]) was 0.25 to 0.5 µg/mL (≈ 0.529 to 1.06 µM) throughout. Further, the responders at 10 mg/kg in series [4] (setting [13]) turned out to be 54%. Also, the LD50 at 504 h in series [6] (setting [10]) is > 1000 mg/kg; in series [6] (setting [11]), > 5000 mg/kg.
Turning to `COc1cc(O)c2c(=O)c(OC)c(-c3ccc(OC(=O)[C@@H](N)CCC(=O)O)c(OC)c3)oc2c1` [4'-(L-α-glutamyloxy)-5-hydroxy-3,3',7-trimethoxyflavone], the results for the IC50 in series [3] (setting [12]) and in series [5] (setting [9]) were 0.25 to 0.5 µg/mL (≈ 0.528 to 1.06 µM) and 0.25 µg/mL (≈ 0.528 µM), respectively.
In the same order, the values of `COc1cc(O)c2c(=O)c(OC)c(-c3ccc(O[C@@H]4O[C@H](CO)[C@@H](O)[C@H](O)[C@H]4O)c(OC)c3)oc2c1` [4'-(β-D-glucopyranosyloxy)-5-hydroxy-3,3',7-trimethoxyflavone] are 0.25 to 0.5 µg/mL (≈ 0.494 to 0.987 µM) and 0.25 µg/mL (≈ 0.494 µM).
Take `COc1cc(O)c2c(=O)c(OC)c(-c3ccc(OC(C)=O)c(OC)c3)oc2c1` [4'-acetoxy-5-hydroxy-3,3',7-trimethoxyflavone]: the IC50 in series [3] (setting [12]) was 0.25 to 0.5 µg/mL (≈ 0.647 to 1.29 µM); in series [5] (setting [9]), 0.5 µg/mL (≈ 1.29 µM).
In the same order, the values of `COc1c(-c2ccc(N)cc2)oc2cc(O)cc(O)c2c1=O` [4'-amino-5,7-dihydroxy-3-methoxyflavone] are 3 to 10 µg/mL (≈ 10 to 33.4 µM) and 1 to 3 µg/mL (≈ 3.34 to 10 µM).
Take `COc1cc(O)c2c(=O)c(OC)c(-c3ccc(N)cc3)oc2c1` [4'-amino-5-hydroxy-3,7-dimethoxyflavone]: the IC50 in series [3] (setting [12]) was 10 to 30 µg/mL (≈ 31.9 to 95.8 µM); in series [5] (setting [9]), 3 µg/mL (≈ 9.58 µM).
Consider `COc1cc(OC)c2c(=O)c(OC)c(-c3ccc(O)c(OC)c3)oc2c1` [4'-hydroxy-3,3',5,7-tetramethoxyflavone], for which the concentration for half-maximal inhibition (IC50) in series [3] (setting [12]) lay within 6 to 7 µg/mL (≈ 16.7 to 19.5 µM); in series [5] (setting [9]), 2 to 7 µg/mL (≈ 5.58 to 19.5 µM).
In the case of `COc1ccc(-c2oc3cc(O)cc(O)c3c(=O)c2OC)cc1` [5,7-dihydroxy-3,4'-dimethoxyflavone], the IC50 in series [3] (HeLa) is > 4 µg/mL; in series [5] (HeLa) it was 0.5 µg/mL (≈ 1.59 µM).
For `COc1cc(OC(=O)C(C)C)c2c(=O)c(OC)c(-c3ccc(OC(=O)C(C)(C)C)c(OC)c3)oc2c1` [5-(isobutyryloxy)-3,3',7-trimethoxy-4'-(pivaloyloxy)-flavone], the half-maximal inhibitory concentration (IC50) in series [3] (setting [12]) is 0.3 to 1 µg/mL (≈ 0.602 to 2.01 µM); in series [5] (setting [9]) it was 0.3 µg/mL (≈ 0.602 µM). Further, the responders at 10 mg/kg in series [4] (setting [8]) came out at 30%. In series [4] (setting [8]), the responders at 20 mg/kg worked out at 40%.
As to `COc1cc(O)c2c(=O)c(OC)c(-c3ccc(OC(=O)C(C)(C)C)c(OC)c3)oc2c1` [5-hydroxy-3,3',7-trimethoxy-4'-(pivaloyloxy)-flavone], the IC50 is 0.3 to 1 µg/mL (≈ 0.7 to 2.33 µM) in series [3] (setting [12]) and 0.3 µg/mL (≈ 0.7 µM) in series [5] (setting [9]).
As to `COc1ccc(-c2oc3cc(OC)cc(O)c3c(=O)c2OC)cc1` [5-hydroxy-3,4',7-trimethoxyflavone], the IC50 in series [3] (setting [12]) is > 8 µg/mL; in series [5] (setting [9]), 1 µg/mL (≈ 3.05 µM).
`COc1cc(O)c2c(=O)c(OC)c(-c3ccc(OC(=O)[C@@H](N)CCCCN)c(OC)c3)oc2c1` [5-hydroxy-4'-(L-lysyloxy)-3,3',7-trimethoxyflavone]: the IC50 in series [3] (HeLa) and in series [5] (setting [9]) was 0.25 µg/mL (≈ 0.529 µM) in each case. In series [4] (setting [13]), the responders at 10 mg/kg is 54%. Moreover, the LD50 at 504 h in series [6] (setting [10]) is 1000 mg/kg; in series [6] (setting [11]) it was > 5000 mg/kg.
Turning to `NC12CC3CC(CC(C3)C1)C2` [amantadine, reference compound], the “Survivals (%)” value in series [1] (20 mg/kg × 9, i.p.) is given as 0%; in series [1] (40 mg/kg × 9, i.p.), 29%. In addition, in series [1] (40 mg/kg × 9, i.p.), the Survivals is 2/7.
